Reference: patent US11851681B2, “Cell preparation method” (KYOTO PREFECTURAL PUBLIC UNIVERSITY CORPORATION, priority 2015, dated 2023)
Entries after “also recorded” stand apart in the source; their conditions may differ.

What was measured:
Format in all cases: cell-based
[1] = test system: human dermal fibroblasts; HDFs; assay: Real-time RT-PCR of Sox9 and Aggrican in cartilage induction medium, Example 8; conditions: ALK5 inhibitor II 2 μM, Cyclic Pifithrin-α 5 μM, day 18, FIG. 8
Method: The concentrations of the compounds are as follows: • Cyclic Pifithrin-α: 5 μM • ALK5 inhibitor II: 2 μM.

[2] = test system: Human normal skin-derived fibroblasts (HDFs); assay: Real-time RT-PCR of UCP1, four inhibitors, Example 39
Method: The addition concentration of the compound was 4 μM, 8 μM, 12 μM or 16 μM. […] Thereafter, in Day 9-Day 14, culturing was performed in a medium free of ALK5 inhibitor II, LY2157299, SB431542, D4476.

[3] = test system: human dermal fibroblasts; HDFs; assay: Bodipy staining in WA medium, four inhibitors, Example 48; conditions: day 12, FIG. 52
[4] = test system: human dermal fibroblasts; HDFs; assay: Real-time PCR of AdipoQ, FABP4, PPAR-γ, four inhibitors with Rosiglitazone, Example 50; conditions: WA medium added with 1 μM Rosiglitazone and 16 μM compound; day 12
Description: On day 12, RNA was recovered from the cells and, in the same manner as in Example 47, mRNA of AdipoQ, FABP4 (mature adipocyte marker), and PPAR-γ (preadipocyte marker) was quantified.

[5] = test system: Human Epidermal Keratinocyte; NHEK (AD); assay: Real-time RT-PCR of UCP1 and CIDEA, keratinocyte to brown adipocyte, Example 43; conditions: K-adipocyte induction medium; ALK5 inhibitor II 4 μM or LY2157299 8 μM, Day 1 to Day 8; day 14; FIG. 47
Method: Normal human epidermal keratinocyte (Human Epidermal Keratinocyte; NHEK (AD)) were suspended in a serum-free liquid medium for normal human epidermal keratinocyte proliferation (HuMedia-KG2; manufactured by Kurabo).
The K-adipocyte induction medium is HuMedia-KG2 added with 1 nM T3, 1 μM Rosiglitazone, 0.5 mM 3-isobutyl-1-methylxanthine (IBMX), 0.5 μM dexamethasone, and 1 μg/mL Insulin.
Once every 2 days, the culture medium was exchanged with a fresh one, and culturing was performed from Day 1 to Day 8. Thereafter, from Day 9 to Day 14, the cells were cultured in a medium free of ALK5 inhibitor II or LY2157299. On day 14, the culture medium was removed by suction from each well, washed with PBS(−) and total RNA was extracted from the cells by using RNA easy Mini Kit manufactured by Qiagen. cDNA was synthesized from the RNA by using Rever Tra Ace qPCR RT Master Mix. This cDNA was admixed with Real-time PCR Master Mix, primers specific to UCP-1 gene, CIDEA gene or β actin gene and Taqman probe. qRT-PCR was performed using AB7300 Real-time PCR system. The mRNA level of UCP1 gene and CIDEA gene was quantified as a ratio to β-actin gene mRNA level, and calculated with the value of fibroblast cultured in the general medium as 1.

[6] = test system: Human normal skin-derived fibroblasts (HDFs); assay: Immunostaining of UCP1, four inhibitors, Example 40; conditions: LY2157299 8 μM, SB431542 4 μM, D4476 4 μM, Day 1 to Day 8, day 14, FIG. 44
Method: Human normal skin-derived fibroblasts (HDFs) were suspended in a general medium (DMEM added with 10% FBS). […] The adipocyte induction medium is DMEM added with 1 nM T3, 1 μM Rosiglitazone, 0.5 mM 3-isobutyl-1-methylxanthine (IBMX), 0.5 μM dexamethasone, 1 μg/mL Insulin and 10% FBS. Once every 2 days, the culture medium was exchanged with a fresh one, and culturing was performed from Day 1 to Day 8. Thereafter, from Day 9 to Day 14, the cells were cultured in an adipocyte induction medium free of ALK5 inhibitor II, LY2157299, SB431542, D4476. On day 14, the culture medium was removed by suction from each well, and washed with PBS(−). After fixing with 4% para-formaldehyde, the well was washed with PBS (−), Permanent wave Buffer (0.2% Triton-X addition PBS) was added and the well was incubated for 15 min. After washing 3 times with PBS(−), Blocking One was added, and the mixture was incubated at room temperature for 60 min. Anti-UCP-1 antibody (RD MAB6158) was added and the mixture was reacted for 2 hrs at room temperature, and washed 3 times with Wash buffer. CF488-conjugated anti-mouse Ig antibody (Biotum 20014) was added and the mixture was reacted for 2 hrs at room temperature, and washed 3 times with PBS(−). After nuclear staining with SlowFade Gold antifade reagent with DAPI manufactured by Lifetechnology, the cells were photographed with a fluorescence microscope at ×100 magnification.

[7] = test system: human dermal fibroblasts; HDFs; assay: Bodipy staining quantification in WA medium, four inhibitors, Example 49; conditions: 16 μM compound and 1 μM Rosiglitazone, day 12, FIG. 53
[8] = test system: Human normal skin-derived fibroblasts (HDFs); assay: Real-time RT-PCR of UCP1, CIDEA, KCNK3, Example 41; conditions: ALK5 inhibitor II or LY2157299 (8 μM), Day 1 to Day 8; day 14; FIG. 45
Method: Human normal skin-derived fibroblasts (HDFs) were suspended in a general medium (DMEM added with 10% FBS). […] The adipocyte induction medium is DMEM added with 1 nM T3, 1 μM Rosiglitazone, 0.5 mM 3-isobutyl-1-methylxanthine (IBMX), 0.5 μM dexamethasone, 1 μg/mL Insulin and 10% FBS. Once every 2 days, the culture medium was exchanged with a fresh one, and culturing was performed from Day 1 to Day 8. Thereafter, from Day 9 to Day 14, the cells were cultured in an adipocyte induction medium free of ALK5 inhibitor II or LY2157299. On day 14, the culture medium was removed by suction from each well, washed with PBS(−) and total RNA was extracted from the cells by using RNA easy Mini Kit manufactured by Qiagen. cDNA was synthesized from the RNA by using Rever Tra Ace qPCR RT Master Mix. This cDNA was admixed with Real-time PCR Master Mix, primers specific to UCP-1 gene, CIDEA gene, KCNK3 gene or β actin gene and Taqman probe. qRT-PCR was performed using AB7300 Real-time PCR system. The mRNA level of UCP1 gene was quantified as a ratio to β-actin gene mRNA, and calculated with the value of fibroblast cultured in the general medium as 1.

Structure (SMILES)	conversion of fibroblast to chondrocyte, Sox9 and Aggrican mRNA [1]	conversion of fibroblast to brown adipocyte, UCP1 mRNA ([2]; 4 μM, 8 μM, 12 μM or 16 μM in adipocyte induction medium Day 1 to Day 8, then compound-free to day 14, FIG. 43)	efficiency in converting fibroblast to brown adipocyte (summary statement) ([2]; description, conditions not given)	lipid droplets stained with Bodipy, inhibitor alone ([3]; WA medium added with 16 μM compound alone)	lipid droplets stained with Bodipy / conversion to white adipocyte, inhibitor and Rosiglitazone ([3]; WA medium added with 16 μM compound and 1 μM Rosiglitazone)	conversion of human fibroblast to white adipocyte (mRNA markers) [4]	conversion of epidermal keratinocyte to brown adipocyte, UCP1 and CIDEA mRNA [5]	conversion of fibroblast to brown adipocyte, UCP1 protein ([6]; ALK5 inhibitor II 4 μM)	staining with anti-UCP1 antibody ([6]; groups 3-6: ALK5 inhibitor II 4 μM)	fat accumulation (BODIPY) / conversion to white adipocyte, co-addition of Rosiglitazone [7]	conversion of fibroblast to brown adipocyte, UCP1, CIDEA and KCNK3 mRNA [8]
Cc1ccc(-c2cn3c4c(sc3n2)CCCC4)cc1 [Cyclic Pifithrin-α]	does not promote conversion of fibroblast to chondrocyte	–	–	–	–	–	–	–	–	–	–
Cc1cccc(-c2nn3c(c2-c2ccnc4ccc(C(N)=O)cc24)CCC3)n1 [LY2157299, 4-[5,6-dihydro-2-(6-methyl-2-pyridinyl)-4H-pyrrolo[1,2-b]pyrazol-3-yl]-6-quinolinecarboxamide]	–	converted fibroblast to brown adipocyte strongly expressing UCP1 gene; also recorded: secondly	highly efficient in converting fibroblast to brown adipocyte	only a few cells contained lipid droplets stained with Bodipy	many cells were stained	converted human fibroblast to white adipocyte	converted normal human epidermal keratinocyte to brown adipocyte expressing UCP1 gene and CIDEA gene	converted fibroblast to brown adipocyte expressing UCP1 protein; also recorded: secondly	many cells were stained with anti-UCP1 antibody; also recorded: the second highest	more strongly induced fat accumulation than by the addition of Rosiglitazone alone	converted fibroblast to brown adipocyte expressing UCP1 gene, CIDEA gene and KCNK3 gene
